Patent USRE50050E1, “Pyrimidinedione compounds” (MyoKardia, Inc., priority 2013, dated 2024)
Like-named read-outs stand apart in the source and are kept apart here.

Columns and labels:
[1] = system: adult rat ventricular myocytes; assay: Cardiomyocyte contractility assay (fractional shortening, IonOptix); type: cell-based; details: Ventricular myocyte, 5 min, 5 minutes of compound; for inhibition at 1 µM: 1.0 uM compound
Experimental: Contractility of adult rat ventricular myocytes is determined by edge detection with an IonOptix contractility system. Aliquots of myocytes in Tyrode buffer (137 mM NaCl, 3.7 mM KCL, 0.5 mM MgCl2, 1.5 mM CaCl2, 4 mM HEPES, 11 mM glucose) are placed in a perfusion chamber (Series 20 RC-27NE; Warner Instruments), allowed to adhere to the coverslip, and then perfused with 37° C. Tyrode buffer. Myocytes are filed stimulated at 1 Hz and 10V. Only myocytes with clear striations, quiescent prior to pacing, with a cell length of 120-180 microns, a basal fractional shortening equal to 3-8% of the cell length, and a contraction velocity greater than 100 microns per second are used for contractility experiments. To determine the response to compounds, myocytes are first perfused for 60 seconds with Tyrodes buffer followed by 5 minutes of compound and a 140 second washout with Tyrodes buffer. Data is continuously recorded using IonOptix software. Contractility data is analyzed using Ionwizard software (IonOptix). For each cell, 10-20 contractility transients were averaged and compared under basal (no compound) and compound-treated conditions. Compound activity is measured by effects on fractional shortening (FS), where fractional shortening is the ratio of the peak length of the cell at contraction divided by the basal cell length normalized to 100% for an untreated cell.

[2] = system: cardiac contractility in rat; assay: Acute pharmacodynamic effect in rat (echocardiographic fractional shortening); type: in vivo; details: male Sprague-Dawley rats, single dose 4 mg/kg by oral gavage, percent reduction of baseline
Experimental: Representative compounds were tested for their ability to modulate cardiac contractility in rat as a measure of in vivo target engagement. Fractional shortening, a measure of contractility, was determined by noting the change in the diameter of the left ventricle at the end of systole/contraction (LVESd) relative to diastole/relaxation (LVEDd) and expressing this change as the ratio FS=(LVEDd−LVESd)/LVEDd. Fed male Sprague-Dawley rats were lightly anesthetized with isofluorane and baseline fractional shortening was measured in the parasternal position using transthoracic echocardiography (TTE). Following this measurement, animals were recovered and received a single dose of compound (4 mg/kg) by oral gavage. At three hours post-dose, second and third echocardiograms were collected under light anesthesia to determine drug effects on contractility. Effects are represented in Table 5 as a percent reduction of baseline fractional shortening.

[3] = molecular target: T1, bovine cardiac myosin (Bos taurus, UniProt Q9BE39); assay: Myosin inhibition assay (PK/LDH-coupled ATPase, bovine cardiac myofibrils); type: biochemical; details: bovine cardiac myofibrils
T1 construct: The source of cardiac myosin was from bovine heart in the form of skinned myofibrils; from tissue; host or cells: bovine heart, skinned myofibrils
T1 sequence (Q9BE39 whole entry): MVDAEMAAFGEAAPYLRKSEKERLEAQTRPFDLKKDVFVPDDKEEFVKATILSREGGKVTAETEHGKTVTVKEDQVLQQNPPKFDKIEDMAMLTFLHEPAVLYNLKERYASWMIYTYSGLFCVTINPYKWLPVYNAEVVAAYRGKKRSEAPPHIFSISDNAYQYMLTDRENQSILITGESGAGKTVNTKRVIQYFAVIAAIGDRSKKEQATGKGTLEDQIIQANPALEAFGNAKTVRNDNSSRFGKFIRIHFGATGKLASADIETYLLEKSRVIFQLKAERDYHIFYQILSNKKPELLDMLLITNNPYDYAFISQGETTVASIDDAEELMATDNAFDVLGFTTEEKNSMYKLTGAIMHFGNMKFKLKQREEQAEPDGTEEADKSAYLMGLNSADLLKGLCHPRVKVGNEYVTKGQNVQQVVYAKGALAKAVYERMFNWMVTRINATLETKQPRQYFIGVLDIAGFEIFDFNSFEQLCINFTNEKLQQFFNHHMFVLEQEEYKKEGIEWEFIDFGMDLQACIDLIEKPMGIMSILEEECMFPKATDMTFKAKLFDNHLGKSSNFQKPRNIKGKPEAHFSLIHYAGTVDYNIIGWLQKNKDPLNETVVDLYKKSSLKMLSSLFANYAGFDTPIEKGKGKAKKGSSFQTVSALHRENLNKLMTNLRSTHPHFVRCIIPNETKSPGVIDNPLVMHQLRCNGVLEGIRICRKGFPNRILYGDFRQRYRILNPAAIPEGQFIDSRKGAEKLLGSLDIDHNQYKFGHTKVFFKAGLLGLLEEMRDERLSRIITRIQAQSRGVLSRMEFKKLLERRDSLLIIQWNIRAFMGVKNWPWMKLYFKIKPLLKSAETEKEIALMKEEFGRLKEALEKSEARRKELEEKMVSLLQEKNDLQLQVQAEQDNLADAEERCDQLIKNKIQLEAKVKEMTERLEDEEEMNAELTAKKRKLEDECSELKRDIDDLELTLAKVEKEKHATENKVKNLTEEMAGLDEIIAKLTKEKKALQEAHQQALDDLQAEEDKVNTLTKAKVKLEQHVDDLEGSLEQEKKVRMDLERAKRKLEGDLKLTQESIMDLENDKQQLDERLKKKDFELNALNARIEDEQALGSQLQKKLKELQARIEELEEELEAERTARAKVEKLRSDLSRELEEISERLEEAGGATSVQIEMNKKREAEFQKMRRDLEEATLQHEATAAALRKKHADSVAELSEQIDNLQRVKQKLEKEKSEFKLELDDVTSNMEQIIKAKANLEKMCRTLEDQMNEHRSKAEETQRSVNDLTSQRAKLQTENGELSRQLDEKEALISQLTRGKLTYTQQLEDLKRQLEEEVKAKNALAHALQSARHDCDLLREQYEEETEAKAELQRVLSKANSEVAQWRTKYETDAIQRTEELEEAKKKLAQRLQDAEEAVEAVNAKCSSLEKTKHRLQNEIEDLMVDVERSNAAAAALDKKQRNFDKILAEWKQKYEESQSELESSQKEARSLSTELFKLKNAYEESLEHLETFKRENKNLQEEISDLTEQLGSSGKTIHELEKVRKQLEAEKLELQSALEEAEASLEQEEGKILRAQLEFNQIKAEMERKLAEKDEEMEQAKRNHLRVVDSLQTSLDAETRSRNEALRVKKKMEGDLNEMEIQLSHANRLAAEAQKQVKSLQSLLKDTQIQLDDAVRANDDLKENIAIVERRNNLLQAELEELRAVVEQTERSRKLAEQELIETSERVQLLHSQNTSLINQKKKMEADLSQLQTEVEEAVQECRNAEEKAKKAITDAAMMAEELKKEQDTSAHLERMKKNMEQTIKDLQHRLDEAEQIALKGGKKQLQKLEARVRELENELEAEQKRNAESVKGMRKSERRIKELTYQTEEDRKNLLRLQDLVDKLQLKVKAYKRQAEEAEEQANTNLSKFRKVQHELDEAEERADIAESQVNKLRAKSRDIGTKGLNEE
T1 sequence (P85100 whole entry partner): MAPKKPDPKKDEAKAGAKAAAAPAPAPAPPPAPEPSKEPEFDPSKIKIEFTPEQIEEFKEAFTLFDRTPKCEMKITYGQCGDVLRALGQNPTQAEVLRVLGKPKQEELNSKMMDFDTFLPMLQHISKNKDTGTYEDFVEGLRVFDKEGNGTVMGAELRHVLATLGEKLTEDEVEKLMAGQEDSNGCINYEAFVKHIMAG
T1 sequence (Q3SZE5 whole entry partner): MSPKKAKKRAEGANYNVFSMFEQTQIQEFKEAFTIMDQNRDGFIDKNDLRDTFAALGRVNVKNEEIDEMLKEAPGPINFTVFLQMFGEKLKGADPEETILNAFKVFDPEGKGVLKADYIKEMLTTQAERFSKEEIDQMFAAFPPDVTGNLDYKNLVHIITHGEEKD

[4] = calcium giving 50% activation (pCa50), read-out: Biochemical Activity (pCa50)
[5] = calcium giving 75% activation (pCa75), read-out: Biochemical Activity (pCa75)

| Compound | IC50 [3, 4] | IC50 [3, 5] | inhibition at 0.3 µM ([1]; 0.3 uM compound) | inhibition at 1 µM [1] | % Reduction in Fractional Shortening 3 h post-dose [2] |
| --- | --- | --- | --- | --- | --- |
| CC(C)n1c(=O)cc(N[C@@H](C)c2ccccc2)[nH]c1=O [Compound 1, (S)-3-Isopropyl-6-((1-phenylethyl)amino) pyrimidine-2,4(1H,3H)-dione] |  |  | 33 to 66% | > 66% | +++ (+++ presents a relative change in fractional shortening greater than 30%) |
| CCCn1c(=O)cc(N[C@@H](C)c2ccccc2)[nH]c1=O [Compound 48, (S)-6-((1-phenylethyl)amino)-3-propylpyrimidine-2,4(1H,3H)-dione] | 1000 to 15000 nM | 1000 to 15000 nM |  |  | +++ (+++ presents a relative change in fractional shortening greater than 30%) |
| CC(C)n1c(=O)cc(N[C@@H](C)c2ccccc2C(F)(F)F)[nH]c1=O [Compound 70, (S)-3-isopropyl-6-((1-(2-(trifluoromethyl)phenyl)ethyl)amino) pyrimidine-2,4(1H,3H)-dione] |  | 1000 to 15000 nM |  |  | ++ (++ represents a relative change in fractional shortening between 15-30%) |
| C[C@H](Nc1cc(=O)n(C2(C)CC2)c(=O)[nH]1)c1ccccc1 [Compound 71, (S)-3-(1-methylcyclopropyl)-6-((1-phenylethyl)amino)pyrimidine-2,4(1H,3H)-dione] | < 1000 nM |  |  |  | +++ (+++ presents a relative change in fractional shortening greater than 30%) |

The next lines start with results.

| IC50 [3, 4] | IC50 [3, 5] | Compound | inhibition at 0.3 µM ([1]; 0.3 uM compound) | inhibition at 1 µM [1] | % Reduction in Fractional Shortening 3 h post-dose [2] |
| --- | --- | --- | --- | --- | --- |
| < 1000 nM | < 1000 nM | C[C@H](Nc1cc(=O)n(-c2ccccc2)c(=O)[nH]1)c1ccccc1 [Compound 45] |  |  | + (+ represents a relative change in fractional shortening less than 15%) |
| < 1000 nM | < 1000 nM | C[C@H](Nc1cc(=O)n(-c2cc(F)cc(F)c2)c(=O)[nH]1)c1ccccc1 [Compound 49, (S)-3-(3,5-difluorophenyl)-6-((1-phenylethyl)amino)pyrimidine-2,4(1H,3H)-dione] |  |  | +++ (+++ presents a relative change in fractional shortening greater than 30%) |
| < 1000 nM |  | C[C@H](Nc1cc(=O)n(CC(F)(F)F)c(=O)[nH]1)c1ccc2c(c1)OCO2 [Compound 67, (S)-6-((1-(benzo[d][1,3]dioxol-5-yl)ethyl)amino)-3-(2,2,2-trifluoroethyl)pyrimidine-2,4(1H,3H)-dione] |  | > 66% |  |
| < 1000 nM | 1000 to 15000 nM | C[C@H](Nc1cc(=O)n(C2CCC2)c(=O)[nH]1)c1ccccc1 [Compound 69, (S)-3-cyclobutyl-6-((1-phenylethyl)amino)pyrimidine-2,4(1H,3H)-dione] |  |  | + (+ represents a relative change in fractional shortening less than 15%) |
